Source: patent publication US20230146675A1, “PYRIMIDO[5,4-d]PYRIMIDINE DERIVATIVES AS ENT INHIBITORS FOR THE TREATMENT OF CANCERS, AND COMBINATION THEREOF WITH ADENOSINE RECEPTOR ANTAGONISTS” (ITEOS BELGIUM SA, priority 2020, published 2023)

The compounds below were run against T1, human ENT1 (Homo sapiens, UniProt Q99808) (assay: ENT1 binding assay (competition with Sahenta-DY647 on JAR cells)). Details: binned IC50.
T1 sequence (Q99808 1-456): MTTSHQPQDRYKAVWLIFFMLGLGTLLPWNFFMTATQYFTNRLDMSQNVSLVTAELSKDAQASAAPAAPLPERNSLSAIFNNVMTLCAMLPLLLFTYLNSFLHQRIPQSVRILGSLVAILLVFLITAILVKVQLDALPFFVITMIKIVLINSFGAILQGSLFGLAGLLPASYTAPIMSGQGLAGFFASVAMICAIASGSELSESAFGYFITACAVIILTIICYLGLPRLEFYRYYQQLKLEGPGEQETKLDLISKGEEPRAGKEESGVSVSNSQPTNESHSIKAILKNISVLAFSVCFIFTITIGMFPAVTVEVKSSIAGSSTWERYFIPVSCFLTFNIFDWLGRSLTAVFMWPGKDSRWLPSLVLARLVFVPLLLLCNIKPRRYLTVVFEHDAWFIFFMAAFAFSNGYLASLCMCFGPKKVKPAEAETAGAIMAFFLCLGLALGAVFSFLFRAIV
Parameters: JAR cells expressing ENT1 were bought from ATCC; host or cells: JAR cells
How it was run: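 JAR cells were incubated with test compounds and the fluorescent ligand Sahenta-DY647 in competition. Plates were washed twice by centrifugation (4 min, 400 rcf, 4 °C). Binding potency was derived from the final fluorescence.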
`COCCN(CCOC)c1nc(N2CCc3oc(C)nc3C2)c2nc(N(CCOC)CCOC)nc(N3CCN(C)C(=O)C3)c2n1` [Compound 256, 4-(2,6-bis(bis(2-methoxyethyl)amino)-8-(2-methyl-6,7-dihydrooxazolo[4,5-c]pyridin-5(4H)-yl)pyrimido[5,4-d]pyrimidin-4-yl)-1-methylpiperazin-2-one] was tested, and the IC50 was less than 0.1 µM. `COCCN(CCOC)c1nc(N2CCn3ccnc3C2)c2nc(N(CCOC)CCOC)nc(N3CCN(C)C(=O)C3)c2n1` [Compound 257, 4-(2,6-bis(bis(2-methoxyethyl)amino)-8-(5,6-dihydroimidazo[1,2-a]pyrazin-7(8H)-yl)pyrimido[5,4-d]pyrimidin-4-yl)-1-methylpiperazin-2-one] gave an IC50 of less than 0.1 µM. `COCCN(CCOC)c1nc(N2CCn3cccc3C2)c2nc(N(CCOC)CCOC)nc(N3CCN(C)C(=O)C3)c2n1` [Compound 258, 4-(2,6-bis(bis(2-methoxyethyl)amino)-8-(3,4-dihydropyrrolo[1,2-a]pyrazin-2(1H)-yl)pyrimido[5,4-d]pyrimidin-4-yl)-1-methylpiperazin-2-one] gave an IC50 of less than 0.1 µM. For `COCCN(CCOC)c1nc(N2CCc3cn[nH]c3C2)c2nc(N(CCOC)CCOC)nc(N3CCN(C)C(=O)C3)c2n1` [Compound 259, 4-(2,6-bis(bis(2-methoxyethyl)amino)-8-(1,4,5,7-tetrahydro-6H-pyrazolo[3,4-c]pyridin-6-yl)pyrimido[5,4-d]pyrimidin-4-yl)-1-methylpiperazin-2-one], the IC50 was less than 0.1 µM. `COCCN(CCOC)c1nc(N2CCn3nccc3C2)c2nc(N(CCOC)CCOC)nc(N3CCN(C)C(=O)C3)c2n1` [Compound 260, 4-(2,6-bis(bis(2-methoxyethyl)amino)-8-(6,7-dihydropyrazolo[1,5-a]pyrazin-5(4H)-yl)pyrimido[5,4-d]pyrimidin-4-yl)-1-methylpiperazin-2-one] showed an IC50 of less than 0.1 µM. In the case of `COCCN(CCOC)c1nc(N2CCc3oncc3C2)c2nc(N(CCOC)CCOC)nc(N3CCN(C)C(=O)C3)c2n1` [Compound 261, 4-(2,6-bis(bis(2-methoxyethyl)amino)-8-(6,7-dihydroisoxazolo[4,5-c]pyridin-5(4H)-yl)pyrimido[5,4-d]pyrimidin-4-yl)-1-methylpiperazin-2-one], the IC50 is reported as less than 0.1 µM. Compound `COCCN(CCOC)c1nc(N2CCC(OC)CC2)c2nc(OCc3ccnc(C)c3)nc(N3CCC(OC)CC3)c2n1` [Compound 262, N,N-bis(2-methoxyethyl)-4,8-bis(4-methoxypiperidin-1-yl)-6-((2-methylpyridin-4-yl)methoxy)pyrimido[5,4-d]pyrimidin-2-amine] has an IC50 of 0.1 to 0.5 µM. Compound `COCCN(CCOC)c1nc(N2CCC(OC)CC2)c2nc(OCc3ccc(C)nc3)nc(N3CCC(OC)CC3)c2n1` [Compound 263, N,N-bis(2-methoxyethyl)-4,8-bis(4-methoxypiperidin-1-yl)-6-((6-methylpyridin-3-yl)methoxy)pyrimido[5,4-d]pyrimidin-2-amine] has an IC50 of 0.1 to 0.5 µM. `COCCN(CCOC)c1nc(N2CCc3cnn(C)c3C2)c2nc(N(CCOC)CCOC)nc(N3CCN(C)C(=O)C3)c2n1` [Compound 266, 4-(2,6-bis(bis(2-methoxyethyl)amino)-8-(1-methyl-1,4,5,7-tetrahydro-6H-pyrazolo[3,4-c]pyridin-6-yl)pyrimido[5,4-d]pyrimidin-4-yl)-1-methylpiperazin-2-one] showed an IC50 of less than 0.1 µM. `CCN(CCN1CCCC1)c1nc(N2CCN(C)C(=O)C2)c2nc(N(CCOC)CCOC)nc(N3CCC(OC)CC3)c2n1` [Compound 267, 4-(6-(bis(2-methoxyethyl)amino)-2-(ethyl(2-(pyrrolidin-1-yl)ethyl)amino)-8-(4-methoxypiperidin-1-yl)pyrimido[5,4-d]pyrimidin-4-yl)-1-methylpiperazin-2-one] showed an IC50 of 0.1 to 0.5 µM. For `COCCN(Cc1cc(OC)c(OC)c(OC)c1)c1nc(N2CCN(C)C(=O)C2)c2nc(N(CCOC)CCOC)nc(N3CCC(OC)CC3)c2n1` [Compound 268, 4-(6-(bis(2-methoxyethyl)amino)-2-((2-methoxyethyl)(3,4,5-trimethoxybenzyl)amino)-8-(4-methoxypiperidin-1-yl)pyrimido[5,4-d]pyrimidin-4-yl)-1-methylpiperazin-2-one], the IC50 was less than 0.1 µM. Compound `COCCN(CCOC)c1nc(N2CCN(C)C(=O)C2)c2nc(N(CCOC)Cc3cc(OC)c(OC)c(OC)c3)nc(N3CCC(OC)CC3)c2n1` [Compound 269, 4-(2-(bis(2-methoxyethyl)amino)-6-((2-methoxyethyl)(3,4,5-trimethoxybenzyl)amino)-8-(4-methoxypiperidin-1-yl)pyrimido[5,4-d]pyrimidin-4-yl)-1-methylpiperazin-2-one] has an IC50 of less than 0.1 µM. `COCCN(CCOC)c1nc(N2CCC(OC)CC2)c2nc(N(CCO)CCO)nc(N3CCN(C)C(=O)C3)c2n1` [Compound 270, 4-(2-(bis(2-hydroxyethyl)amino)-6-(bis(2-methoxyethyl)amino)-8-(4-methoxypiperidin-1-yl)pyrimido[5,4-d]pyrimidin-4-yl)-1-methylpiperazin-2-one] showed an IC50 of 0.1 to 0.5 µM. For `COCCN(CCOC)c1nc(N2CCN(C)C(=O)C2)c2nc(N(CCO)CCO)nc(N3CCC(OC)CC3)c2n1` [Compound 271, 4-(6-(bis(2-hydroxyethyl)amino)-2-(bis(2-methoxyethyl)amino)-8-(4-methoxypiperidin-1-yl)pyrimido[5,4-d]pyrimidin-4-yl)-1-methylpiperazin-2-one], the IC50 was 0.5 to 1 µM. `CCN(CCN1CCCCC1)c1nc(N2CCN(C)C(=O)C2)c2nc(N(CCOC)CCOC)nc(N3CCC(OC)CC3)c2n1` [Compound 272, 4-(6-(bis(2-methoxyethyl)amino)-2-(ethyl(2-(piperidin-1-yl)ethyl)amino)-8-(4-methoxypiperidin-1-yl)pyrimido[5,4-d]pyrimidin-4-yl)-1-methylpiperazin-2-one] showed an IC50 of 0.1 to 0.5 µM. With `COCCN(CCO)c1nc(N2CCN(C)C(=O)C2)c2nc(N(CCOC)CCOC)nc(N3CCC(OC)CC3)c2n1` [Compound 275, 4-(6-(bis(2-methoxyethyl)amino)-2-((2-hydroxyethyl)(2-methoxyethyl)amino)-8-(4-methoxypiperidin-1-yl)pyrimido[5,4-d]pyrimidin-4-yl)-1-methylpiperazin-2-one] the IC50 was less than 0.1 µM. `COCCN(CCOC)c1nc(N2CCN(C)C(=O)C2)c2nc(N(CCO)CCOC)nc(N3CCC(OC)CC3)c2n1` [Compound 276, 4-(2-(bis(2-methoxyethyl)amino)-6-((2-hydroxyethyl)(2-methoxyethyl)amino)-8-(4-methoxypiperidin-1-yl)pyrimido[5,4-d]pyrimidin-4-yl)-1-methylpiperazin-2-one] gave an IC50 of 0.1 to 0.5 µM. In the case of `COCCN(CCOC)c1nc(N2CCC(OC)CC2)c2nc(N(CCO)CCN(C)C(C)=O)nc(N3CCN(C)C(=O)C3)c2n1` [Compound 277, N-(2-((6-(bis(2-methoxyethyl)amino)-8-(4-methoxypiperidin-1-yl)-4-(4-methyl-3-oxopiperazin-1-yl)pyrimido[5,4-d]pyrimidin-2-yl)(2-hydroxyethyl)amino)ethyl)-N-methylacetamide], the IC50 is reported as 0.1 to 0.5 µM. Compound `COCCN(CCOC)c1nc(N2CCN(C)C(=O)C2)c2nc(N3CCNC(=O)C3)nc(N3CCC(OC)CC3)c2n1` [Compound 278, 4-(2-(bis(2-methoxyethyl)amino)-8-(4-methoxypiperidin-1-yl)-6-(3-oxopiperazin-1-yl)pyrimido[5,4-d]pyrimidin-4-yl)-1-methylpiperazin-2-one] has an IC50 of 0.1 to 0.5 µM. For `COCCN(CCOC)c1nc(N2CCN(C)C(=O)C2)c2nc(N3CCN(S(C)(=O)=O)CC3)nc(N3CCC(OC)CC3)c2n1` [Compound 279, 4-(2-(bis(2-methoxyethyl)amino)-8-(4-methoxypiperidin-1-yl)-6-(4-(methylsulfonyl)piperazin-1-yl)pyrimido[5,4-d]pyrimidin-4-yl)-1-methylpiperazin-2-one], the IC50 was 0.1 to 0.5 µM. With `COCCN(CCOC)c1nc(N2CCC(OC)CC2)c2nc(N(CCO)CCCS(C)(=O)=O)nc(N3CCN(C)C(=O)C3)c2n1` [Compound 280, 4-(6-(bis(2-methoxyethyl)amino)-2-((2-hydroxyethyl)(3-(methylsulfonyl)propyl)amino)-8-(4-methoxypiperidin-1-yl)pyrimido[5,4-d]pyrimidin-4-yl)-1-methylpiperazin-2-one] the IC50 was 0.1 to 0.5 µM. With `COCCN(CCOC)c1nc(N2CCN(C)C(=O)C2)c2nc(N3CCN(C(C)=O)CC3)nc(N3CCC(OC)CC3)c2n1` [Compound 281, 4-(6-(4-acetylpiperazin-1-yl)-2-(bis(2-methoxyethyl)amino)-8-(4-methoxypiperidin-1-yl)pyrimido[5,4-d]pyrimidin-4-yl)-1-methylpiperazin-2-one] the IC50 was 0.5 to 1 µM. For `COCCN(CCOC)c1nc(N2CCC(OC)CC2)c2nc(N3CCn4ncnc4C3)nc(N3CCN(C)C(=O)C3)c2n1` [Compound 282, 4-(6-(bis(2-methoxyethyl)amino)-2-(5,6-dihydro-[1,2,4]triazolo[1,5-a]pyrazin-7(8H)-yl)-8-(4-methoxypiperidin-1-yl)pyrimido[5,4-d]pyrimidin-4-yl)-1-methylpiperazin-2-one], the IC50 was 0.1 to 0.5 µM. Compound `COCCN(CCOC)c1nc(N2CCN(C)C(=O)C2)c2nc(N3CCn4ncnc4C3)nc(N3CCC(OC)CC3)c2n1` [Compound 283, 4-(2-(bis(2-methoxyethyl)amino)-6-(5,6-dihydro-[1,2,4]triazolo[1,5-a]pyrazin-7(8H)-yl)-8-(4-methoxypiperidin-1-yl)pyrimido[5,4-d]pyrimidin-4-yl)-1-methylpiperazin-2-one] has an IC50 of 0.5 to 1 µM.
